In patent US8921382B2, “Thiazolo[5,4-d] pyrimidines and their use as agrochemicals” (Dow AgroSciences, LLC., priority 2010, dated 2014):

Experiments:
Type in all cases: in vivo
[1] = system: Pyricularia oryzae; test: whole plant or invertebrate; conditions: foliar, read-out: Activity against Fungal Diseases PYRIOR (percent disease control)
[2] = system: Pseudoperonospora cubensis; test: Cucumber Downy Mildew foliar spray test, inoculated one day after treatment; conditions: applied to foliage at 200 ppm, cucumber plants, read-out: Activity against Fungal Diseases PSPECU (percent disease control)
Method: Fungicide activity data are the level (in percent) at which the given disease was controlled when the given compound was applied to the foliage of the plants at 200 ppm. In a few cases (noted in the table) the compound was applied to the plants at 25 ppm or 3 ppm. The plants were inoculated with the fungus one day after treatment. ***=80-100% control; **=50-79% control; *=0-49% control. […] The activity of the compounds as effective fungicides was determined by applying the compounds to plants and observing control of fungal disease. […] All plants were inoculated with spores of the fungus the day after treatment, then incubated in an environment conducive to disease development. Disease severity was evaluated 4 to 25 days (d) later, depending on the speed of disease development. The following experiments were performed in the laboratory to determine the fungicidal efficacy of the compounds of the invention. Cucumber Downy Mildew (causal agent Pseudoperonospora cubensis; Bayer code […]): Cucumber plants (variety 'Bush Champion' or 'Bush Pickle Hybrid') were grown from seed in a soil-less peat-based potting mixture (Metromix) until the first true leaf was 20-80% expanded. Each pot contained 1 seedling. These plants were sprayed until wet with the formulated test compound. On the following day, the leaves were inoculated with an aqueous suspension of downy mildew sporangia and the plants were kept in high humidity for one day to permit sporangia to germinate and infect the leaf. The plants were then incubated in a growth chamber until disease developed on untreated control plants. […] The effectiveness of the test compounds at controlling disease when sprayed on leaves was determined by assessing the severity of disease on treated plants, then converting the severity to percent control based on the level of disease on untreated, inoculated plants.

[3] = system: Puccinia recondita tritici; test: Leaf Rust of Wheat foliar spray test, inoculated one day after treatment; conditions: applied to foliage at 200 ppm, wheat plants, read-out: Activity against Fungal Diseases PUCCRT (percent disease control)
Method: (§1) Fungicide activity data are the level (in percent) at which the given disease was controlled when the given compound was applied to the foliage of the plants at 200 ppm. In a few cases (noted in the table) the compound was applied to the plants at 25 ppm or 3 ppm. The plants were inoculated with the fungus one day after treatment. ***=80-100% control; **=50-79% control; *=0-49% control. […] The activity of the compounds as effective fungicides was determined by applying the compounds to plants and observing control of fungal disease. […] All plants were inoculated with spores of the fungus the day after treatment, then incubated in an environment conducive to disease development. Disease severity was evaluated 4 to 25 days (d) later, depending on the speed of disease development. The following experiments were performed in the laboratory to determine the fungicidal efficacy of the compounds of the invention. […] Each pot contained 3-8 seedlings. These plants were sprayed until wet with the formulated test compounds. On the following day, the leaves were inoculated with an aqueous spore suspension of Puccinia recondita tritici and the plants were kept in high humidity overnight to permit spores to germinate and infect the leaf. The plants were then transferred to a greenhouse until disease developed on untreated control plants. […] The effectiveness of the test compounds at controlling disease when sprayed on leaves was determined by assessing the severity of disease on treated plants, then converting the severity to percent control based on the level of disease on untreated, inoculated plants.

[4] = system: Septoria tritici; test: Septoria Blotch of Wheat foliar spray test, inoculated one day after treatment; conditions: Zymoseptoria tritici, wheat plants, read-out: Activity against Fungal Diseases SEPTTR (percent disease control); for pest or weed control at 200 ppm: applied to foliage at 200 ppm; for pest or weed control at 25 ppm: Tested at 25 ppm
Method: as §1, with “3-10” for “3-8”, “compound.” for “compounds.”, “Septoria” for “Puccinia recondita”, “(one day in a dark dew chamber followed by two days in a lighted dew chamber)” for “overnight”

Question: What does the source list for `Cc1cc(C(F)(F)F)cc(Oc2ccc(CCNc3ncnc4scnc34)cc2)n1` [Compound 62, {2-[4-(6-methyl-4-trifluoromethylpyridin-2-yloxy)-phenyl]-ethyl}-thiazolo[5,4-d]pyrimidin-7-ylamine]?
Answer: pest or weed control at 200 ppm [1]: 80 to 100%; pest or weed control at 200 ppm [2]: 80 to 100%; pest or weed control at 200 ppm [3]: 80 to 100%; pest or weed control at 200 ppm [4]: 80 to 100%

Question: Which results are given for `FC(F)(F)c1cc(Oc2ccc(CCNc3ncnc4scnc34)cc2)ncn1` [Compound 52, thiazolo[5,4-d]pyrimidin-7-yl-{2-[4-(6-trifluoromethylpyrimidin-4-yloxy)-phenyl]-ethyl}-amine]?
Answer: pest or weed control at 200 ppm [1]: 80 to 100%; pest or weed control at 200 ppm [2]: 80 to 100%; pest or weed control at 200 ppm [3]: 80 to 100%; pest or weed control at 25 ppm [4]: 80 to 100%

Question: For `COc1cc(CCNc2ncnc3scnc23)ccc1Oc1ccc(C(F)(F)F)cc1F` [Compound 30, {2-[4-(2-fluoro-4-trifluoromethylphenoxy)-3-methoxyphenyl]-ethyl}-thiazolo[5,4-d]pyrimidin-7-ylamine], which pest or weed control at 200 ppm [1] is on record?
Answer: Its pest or weed control at 200 ppm is 80 to 100%.

Question: What about the pest or weed control at 200 ppm [2] of the same compound?
Answer: Its pest or weed control at 200 ppm is 80 to 100%.

Question: And the pest or weed control at 200 ppm [3]?
Answer: The pest or weed control at 200 ppm was 80 to 100%.

Question: And the pest or weed control at 25 ppm [4]?
Answer: The pest or weed control at 25 ppm was 80 to 100%.

Question: With `Fc1cnc(C(F)(F)F)c(F)c1Oc1ccc(CCNc2ncnc3scnc23)cc1` [Compound 33, {2-[4-(3,5-difluoro-2-trifluoromethylpyridin-4-yloxy)-phenyl]-ethyl}-thiazolo[5,4-d]pyrimidin-7-ylamine] as the compound, how does the pest or weed control at 200 ppm [1] read?
Answer: Its pest or weed control at 200 ppm is 80 to 100%.

Question: And the pest or weed control at 200 ppm [2]?
Answer: Its pest or weed control at 200 ppm is 80 to 100%.

Question: What about the pest or weed control at 200 ppm [3] of the same compound?
Answer: The pest or weed control at 200 ppm was 80 to 100%.

Question: What about the pest or weed control at 200 ppm [4] of the same compound?
Answer: The pest or weed control at 200 ppm was 80 to 100%.

Question: For `Fc1cc(CCNc2ncnc3scnc23)ccc1Oc1cc(C(F)(F)F)ccn1` [Compound 41, {2-[3-fluoro-4-(4-trifluoromethylpyridin-2-yloxy)-phenyl]-ethyl}-thiazolo[5,4-d]pyrimidin-7-ylamine], which pest or weed control at 200 ppm [1] is on record?
Answer: Its pest or weed control at 200 ppm is 80 to 100%.

Question: What about the pest or weed control at 200 ppm [2] of the same compound?
Answer: The pest or weed control at 200 ppm was 80 to 100%.

Question: And the pest or weed control at 200 ppm [3]?
Answer: Its pest or weed control at 200 ppm is 80 to 100%.

Question: What about the pest or weed control at 200 ppm [4] of the same compound?
Answer: The pest or weed control at 200 ppm was 80 to 100%.

Question: How did the pest or weed control at 200 ppm [1] turn out when `Cc1cc(CCNc2ncnc3scnc23)ccc1Oc1nc(C(F)(F)F)c(Cl)s1` [Compound 46, {2-[4-(5-chloro-4-trifluoromethylthiazol-2-yloxy)-3-methylphenyl]-ethyl}-thiazolo[5,4-d]pyrimidin-7-ylamine] was run?
Answer: Its pest or weed control at 200 ppm is 80 to 100%.

Question: And the pest or weed control at 200 ppm [2]?
Answer: The pest or weed control at 200 ppm was 80 to 100%.

Question: What about the pest or weed control at 200 ppm [3] of the same compound?
Answer: Its pest or weed control at 200 ppm is 80 to 100%.

Question: What about the pest or weed control at 200 ppm [4] of the same compound?
Answer: The pest or weed control at 200 ppm was 80 to 100%.

Question: Which results are given for `FC(F)(F)c1cc(Oc2ccc(CCNc3ncnc4scnc34)cc2)ccn1` [Compound 40, thiazolo[5,4-d]pyrimidin-7-yl-{2-[4-(2-trifluoromethylpyridin-4-yloxy)-phenyl]-ethyl}-amine]?
Answer: pest or weed control at 200 ppm [1]: 80 to 100%; pest or weed control at 200 ppm [2]: 80 to 100%; pest or weed control at 200 ppm [3]: 80 to 100%; pest or weed control at 200 ppm [4]: 80 to 100%

Question: What does the source list for `Fc1cc(C(F)(F)F)cnc1Oc1ccc(CCNc2ncnc3scnc23)cc1` [Compound 61, {2-[4-(3-fluoro-5-trifluoromethylpyridin-2-yloxy)-phenyl]-ethyl}-thiazolo[5,4-d]pyrimidin-7-ylamine]?
Answer: pest or weed control at 200 ppm [1]: 80 to 100%; pest or weed control at 200 ppm [2]: 80 to 100%; pest or weed control at 200 ppm [3]: 80 to 100%; pest or weed control at 25 ppm [4]: 50 to 79%

Question: `Cc1cc(Oc2cc(C(F)(F)F)ccn2)ccc1CCNc1ncnc2scnc12` [Compound 59, {2-[2-methyl-4-(4-trifluoromethylpyridin-2-yloxy)-phenyl]-ethyl}-thiazolo[5,4-d]pyrimidin-7-ylamine] was tested. Which pest or weed control at 200 ppm [1] did it give?
Answer: Its pest or weed control at 200 ppm is 80 to 100%.

Question: And the pest or weed control at 200 ppm [2]?
Answer: The pest or weed control at 200 ppm was 80 to 100%.

Question: And the pest or weed control at 200 ppm [3]?
Answer: The pest or weed control at 200 ppm was 80 to 100%.

Question: What about the pest or weed control at 200 ppm [4] of the same compound?
Answer: Its pest or weed control at 200 ppm is 80 to 100%.

Question: Which pest or weed control at 200 ppm [1] does the source give for `Cc1cc(Oc2cc(C(F)(F)F)ccn2)c(C)cc1CCNc1ncnc2scnc12` [Compound 13, {2-[2,5-dimethyl-4-(4-trifluoromethylpyridin-2-yloxy)-phenyl]-ethyl}-thiazolo[5,4-d]pyrimidin-7-ylamine] here?
Answer: Its pest or weed control at 200 ppm is 80 to 100%.

Question: What about the pest or weed control at 200 ppm [2] of the same compound?
Answer: The pest or weed control at 200 ppm was 80 to 100%.

Question: What about the pest or weed control at 200 ppm [3] of the same compound?
Answer: The pest or weed control at 200 ppm was 80 to 100%.

Question: And the pest or weed control at 200 ppm [4]?
Answer: Its pest or weed control at 200 ppm is 80 to 100%.
